According to US6872711B2, “β-substituted β-aminoethyl phosphonate derivatives” (Ilex Oncology Research S.A., priority 2000, dated 2005):

Experiments:
[1] = system: apo(a) secretion in primary cultures of Cynomolgus hepatocytes; assay: Lowering the production of apo(a) in primary cultures of Cynomolgus hepatocytes (ELISA of culture medium); type: cell-based, Cynomolgus monkeys; settings: Macaca fascicularis, Hepatocyte, tested at 20 μM, 6-24 hours incubation, one range stated for all listed compounds, read-out: lowering of apo(a) secretion (change vs control plates)
Protocol: The compounds of formula (I) were assayed for lowering the production of apo(a) in primary cultures of Cynomolgus hepatocytes.
Protocol: Hepatocytes were isolated from livers of male adult Cynomolgus monkeys by the two-step collagenase perfusion method according to C. Guguen-Guillouzo and A. Guillouzo “Methods for preparation of adult and fetal hepatocytes” p.1-12in “Isolated and Cultured Hepatocytes,” les editions Inserm Paris and John Libbey Eurotext London (1986).
The viability of cells was determined by Trypan blue staining. The cells were then seeded at a density of 1.5-2.10^5 viable cells per 2 cm^2 in 24 well tissue culture plates in a volume of 500 μl per well of Williams E tissue culture medium containing 10% fetal calf serum. Cells were incubated for 6-24 hours at 37° C. in a CO2 incubator (5% CO2) in the presence of 20 μM of the test compounds dissolved in ethanol. Four wells were used for each compound. Nicotinic acid and steroid hormones were used as references to validate the assay system since they are known to decrease Lp(a) in man. Control cells were incubated in the presence of ethanol only.
The amount of Lp(a) secreted in culture medium was directly assayed by ELISA using a commercially available kit. Cells were washed and lysed as described by A. L. White et al., Journal of Lipid Research vol. 34, p. 509-517, (1993) and the cellular content of Lp(a) was assayed as described above. Changes in Lp(a) concentration in culture medium are given as the percentage of value measured for the control plates.

CCOP(=O)(CC(Nc1cccnc1)c1cc(OC)c(O)c(OC)c1)OCC (stereo not drawn) [Compound 1, diethyl β-(3,5-dimethoxy-4-hydroxyphenyl)-β-[N-(3-pyridyl)-amino]-ethylphosphonate]
melting point: 164 to 166 °C | inhibition at 20 µM [1]: 10 to 35%

COc1cc(C(CP(=O)(OC(C)C)OC(C)C)Nc2cccnc2)cc(OC)c1O (stereo not drawn) [Compound 2, diisopropyl β-(3,5-dimethoxy-4-hydroxyphenyl)-β-[N-(3-pyridyl)-amino]-ethylphosphonate]
melting point: 138 to 140 °C | inhibition at 20 µM [1]: 10 to 35%

CCOP(=O)(CC(Nc1cccnc1)c1cc(C)c(O)c(OC)c1)OCC (stereo not drawn) [Compound 9, diethyl β-(4-hydroxy-3-methoxy-5-methylphenyl)-β-[N-(3-pyridyl)-amino]-ethylphosphonate]
melting point: 156 to 158 °C | inhibition at 20 µM [1]: 10 to 35%

COc1cc(C(CP(=O)(OC(C)C)OC(C)C)Nc2cccnc2)cc(C)c1O (stereo not drawn) [Compound 10, diisopropyl β-(4-hydroxy-3-methoxy-5-methylphenyl)-β-[N-(3-pyridyl)-amino]-ethylphosphonate]
melting point: 135 to 137 °C | inhibition at 20 µM [1]: 10 to 35%

CCOP(=O)(CC(Nc1cccnc1)c1cc(C)c(O)c(C)c1)OCC (stereo not drawn) [Compound 16, diethyl β-(3,5-dimethyl-4-hydroxyphenyl)-β-[N-(3-pyridyl)-amino]-ethylphosphonate]
melting point: 98 to 101 °C | inhibition at 20 µM [1]: 10 to 35%

Cc1cc(C(CP(=O)(OC(C)C)OC(C)C)Nc2cccnc2)cc(C)c1O (stereo not drawn) [Compound 17, diisopropyl β-(3,5-dimethyl-4-hydroxyphenyl)-β-[N-(3-pyridyl)-amino]-ethylphosphonate]
melting point: 104 to 105 °C | inhibition at 20 µM [1]: 10 to 35%

CCOP(=O)(CC(Nc1cccnc1)c1cc(OC)c(OC)c(OC)c1)OCC (stereo not drawn) [Compound 18, diethyl β-(3,4,5-trimethoxyphenyl)-β-[N-(3-pyridyl)-amino]-ethylphosphonate]
melting point: 104 to 106 °C | inhibition at 20 µM [1]: 10 to 35%

COc1cc(C(CP(=O)(OC(C)C)OC(C)C)Nc2cccnc2)cc(OC)c1OC (stereo not drawn) [Compound 19, diisopropyl β-(3,4,5-trimethoxyphenyl)-β-[N-(3-pyridyl)-amino]-ethylphosphonate]
melting point: 96 to 98 °C | inhibition at 20 µM [1]: 10 to 35%

CCOc1cc(C(CP(=O)(OCC)OCC)Nc2cccnc2)cc(C)c1O (stereo not drawn) [Compound 20, diethyl β-(3-ethoxy-4-hydroxy-5-methylphenyl)-β-[N-(3-pyridyl)-amino]-ethylphosphonate]
melting point: 162 to 164 °C | inhibition at 20 µM [1]: 10 to 35%

CCOc1cc(C(CP(=O)(OC(C)C)OC(C)C)Nc2cccnc2)cc(C)c1O (stereo not drawn) [Compound 21, diisopropyl β-(3-ethoxy-4-hydroxy-5-methylphenyl)-β-[N-(3-pyridyl)-amino]-ethylphosphonate]
melting point: 148 to 150 °C | inhibition at 20 µM [1]: 10 to 35%

CCOP(=O)(CC(Nc1cccnc1)c1cc(C(C)(C)C)c(OC)c(C(C)(C)C)c1)OCC (stereo not drawn) [Compound 30, diethyl β-(3,5-di-tert-butyl-4-methoxyphenyl)-β-[N-(3-pyridyl)-amino]-ethylphosphonate]
inhibition at 20 µM [1]: 10 to 35%

CCOP(=O)(CC(Nc1cccnc1)c1ccc(C)c(O)c1C)OCC (stereo not drawn) [Compound 31, diethyl β-(2,4-dimethyl-3-hydroxyphenyl)-β-[N-(3-pyridyl)-amino]-ethylphosphonate]
inhibition at 20 µM [1]: 10 to 35%

CCOP(=O)(CC(Nc1cccnc1)c1cc(O)c(C)c(OC)c1)OCC (stereo not drawn) [Compound 34, diethyl β-(3-hydroxy-5-methoxy-4-methylphenyl)-β-[N-(3-pyridyl)-amino]-ethylphosphonate]
melting point: 146 to 147 °C | inhibition at 20 µM [1]: 10 to 35%

CCOP(=O)(CC(Nc1cccnc1)c1cc(OC)c(CO)c(OC)c1)OCC (stereo not drawn) [Compound 37, diethyl β-(3,5-dimethoxy-4-hydroxymethylphenyl)-β-[N-(3-pyridyl)-amino]-ethylphosphonate]
inhibition at 20 µM [1]: 10 to 35%
